Results from patent publication US6531119B1, “Compositions with low irritancy” (priority 1998, dated 2003).

Test system: skin
Test: 21-Day Cumulative Irritation Test
Type: in vivo, human
Procedure: Each of the formulations of Examples 1-11 was evaluated for its tendency to cause skin erythema using the 21-Day Cumulative Irritation Test. In this test, 0.2 g of undiluted deodorant is applied daily for 21 days (excluding weekends) to the same 2-cm square patch of skin, which is occluded between applications. Each weekday during the test period, trained personnel grade the portion of skin where the test material is applied for signs of irritation and reapply the test material. Subjects fulfill specific inclusion criteria including not pregnant or breast feeding, over 18 years old, and without medical conditions which would interfere with the test. The grading system used is as follows:
0.5 Papular or papulovesicular response and/or dryness without erythema […]
The total score is calculated by summing each individual's score on the 21 days of the test. […] The normalized score is the total score divided by the total number of readings for all subjects and multiplied by 21 (the number of readings) and by 10 (to normalize to 10 subjects). Normalized scores are analyzed using ANOVA (analysis of variance technique described in Duncan, A. J., “Analysis of Variance”, Quality Control and Industrial Statistics (Irwin Publishers, Homewood, Ill. 1986) including the effects of subject and product. Product comparisons are made at the 5% level based on Fisher's least significant differences. […]

SMILES: CCCCCCCCCCCCOS(=O)(=O)[O-].[Na+] [Sodium Lauryl Sulfate]
- Normalized Score (0.2 g undiluted product applied daily for 21 days to same occluded 2-cm square skin patch, total score normalized to 21 readings and 10 subjects): 431.8
- Irritation Classification (classification of the normalized score, 21-Day Cumulative Irritation Test): Moderate
